Test results: EP1699833B1, “OLIGOMERS CONTAINING N-ACETYL GLUCOSAMINE” (Council of Scientific and Industrial Research, priority 2003, dated 2005)

Molecular target: lysozyme (Gallus gallus, UniProt P00698)
Assay: Relative inhibition of lysozyme (lysis of Micrococcus lysodeikticus, absorbance at 450 nm)
Assay type: biochemical
Conditions: Micrococcus lysodeikticus substrate, phosphate buffer pH 6.2, 20° C; for IC50: read-out: I50; for Imax: maximum inhibition; for concentration at maximum inhibition: concentration at Imax
Method: This example describes estimation of relative inhibition of lysozyme by polyvalent oligomer containing NAG
1.5 % w/v stock solutions of oligomer containing NAG was prepared in 0.0066 M phosphate buffer pH 6.2 containing 0.0154 m sodium chloride and 0.008 M sodium azide. One milliliter of stock solution containing different ligand concentration was mixed with 1.6 ml of 78 µg1ml of Micrococcus lysodeikticus in a 3-ml capacity lass cuvette. The mixture was incubated for 5 minutes at 20° C. To this mixture 0.1 ml of lysozyme (27 µg1ml) was added and mixed thoroughly. The absorbance at 450 nm (Δ450) was recorded for 30 seconds. A blank reading without the polymer ligand was noted and the change in the absorbance per second was calculated.

Sequence of lysozyme (P00698 19-147): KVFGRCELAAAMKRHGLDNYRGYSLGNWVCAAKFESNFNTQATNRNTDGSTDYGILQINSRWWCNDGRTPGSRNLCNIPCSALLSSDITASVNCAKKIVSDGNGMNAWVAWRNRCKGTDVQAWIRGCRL

| Molecule | IC50 [mM] | Imax | concentration at maximum inhibition [mM] |
| --- | --- | --- | --- |
| C=CC(=O)OCC1OC(O)C(NC(C)=O)C(O)C1O (stereo not shown) [Ac .NAG, Acryloyl N-Acetyl Glucosamine] | 14.8 | 50.00 |  |
| CC(=O)N[C@H]1C(O)O[C@H](CO)[C@@H](O)[C@@H]1O (stereo partly shown) [NAG, N-Acetyl Glucosamine] |  | 55.29 | 92.50 |
| Methacryloyl N-Acetyl Glucosamine [M.Ac. NAG] | 18.1 | 71.89 | 21.2 |
